Data taken from patent publication US11478526B2, “Methods of reducing neuroinflammation or toxicity induced by amyloid beta (abeta) using glucocorticoid induced leucine zipper (GILZ) analog peptides” (INDIANA UNIVERSITY RESEARCH AND TECHNOLOGY CORPORATION, priority 2016, dated 2022).

Experiments:
[1] = biological target: T1, Recombinant human p65 protein (r-p65) (Homo sapiens, UniProt Q04206); test: Plate binding ELISA of GA/PGA with r-p65 (KD by method of Friguet)
T1 construct: purchased Ori-Gene Technologies Inc., Rockville, Md; TP320780
T1 sequence (Q04206 whole entry): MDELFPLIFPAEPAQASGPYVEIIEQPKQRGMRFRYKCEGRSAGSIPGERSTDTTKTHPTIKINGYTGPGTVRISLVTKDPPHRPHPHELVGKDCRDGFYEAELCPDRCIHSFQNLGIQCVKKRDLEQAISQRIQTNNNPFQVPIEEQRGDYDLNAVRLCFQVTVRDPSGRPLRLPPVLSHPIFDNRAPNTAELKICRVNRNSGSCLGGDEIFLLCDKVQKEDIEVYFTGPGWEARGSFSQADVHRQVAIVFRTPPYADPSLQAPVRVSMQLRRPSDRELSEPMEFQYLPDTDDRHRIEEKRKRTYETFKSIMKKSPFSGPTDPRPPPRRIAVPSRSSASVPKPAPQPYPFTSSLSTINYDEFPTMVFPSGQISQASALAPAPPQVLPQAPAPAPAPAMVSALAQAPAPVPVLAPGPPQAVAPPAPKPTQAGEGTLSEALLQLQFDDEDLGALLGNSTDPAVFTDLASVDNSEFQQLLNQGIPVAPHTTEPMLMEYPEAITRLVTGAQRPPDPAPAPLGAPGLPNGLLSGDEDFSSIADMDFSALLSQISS
Protocol: We used similar method to determine direct binding kinetics of GA hexapeptides with human r-p65. […] Absorbance at 650 nm was measured with a mixing time of 30 s using BIORAD microplate reader. […] The dissociation constant of the interaction between the GA or the control peptide and r-p65 was determined by the method of Friguet et al., as described. A fraction of the bound r-p65 (x) and the ratio of bound r-p65 to the free GA or control peptide (y) was determined by the equations: x=(A0−A)/(A0), where A0 is the absorbance of r-p65anti-p65 complex in the absence of bound GA or control peptide and y=(A0−A)/(a0−i0)×(A0−A)/(A0), where a0 is the total concentration of GA or control peptide and i0 is the total concentration of r-p65.
Kinetics of PGA:-p65 interaction: The binding kinetics of top five PGA with full length human r-p65 was assessed as described. Plate bound GILZ-P or PGA at increasing concentrations was probed with r-p65-DDK (Ori-Gene Technologies Inc., Rockville, Md.) at constant concentration and detected with anti-DDK.

Aβ1-42 exposed HFB cells = test: Cytokines in culture medium of Aβ1-42 exposed HFB; format: cell-based, human; conditions: 50 μM peptide
Protocol: Fetal brain materials (10-20 g) were shipped overnight in chilled Hibernate-E medium (Invitrogen) supplemented with B27 (Invitrogen), GlutaMAX (Invitrogen) and antibiotic-antimycotic solution (Cellgro). HFB were prepared and cultured as described. Briefly, cells were cultured in Neurobasal medium (Invitrogen) without phenol red supplemented with 1×B27, […] GlutaMAX, 1×antibiotic cocktail, 5 ng/mL recombinant fibroblast growth factor 2 (bFGF) (Invitrogen), and 2 μL/mL Normocin (InVivoGen, San Diego, Calif., USA). Cells were counted and seeded onto poly-D-lysine (Sigma-Aldrich) coated 24-well plates (Corning, Lowell, Mass., USA) at 1.5×10^5 cells per well and maintained at 37° C. in a 5% CO2 incubator. Half media changes were performed every 4th day of culture and morphology was monitored via phase contrast microscopy. Culture medium was removed from cells on day 17 (DIV17) and replaced with Neurobasal medium with B27. Appropriate wells were then added vehicle, or carrier peptide or individual GA or control peptide (at 50 μM) for 30 min followed by exposure to Aβ1-42 at a final concentration of 10 μM/well and incubated for 4 hours or 48 hours. Cells and conditioned media were harvested and stored for further analysis. Relative ATP concentration was measured using the CTG kit (Promega). Data is presented as ΔRLU=RLU of Aβ1-42 exposed cells-RLU unexposed cells. Conditioned media collected were assessed for specific cytokines using the OptEIA kits (BD Biosciences). Nuclear and cytoplasmic fractions were extracted using the CelLytic™ NuCLEAR™ Extraction Kit (Sigma) following manufacturer's protocol. Five microgram of nuclear extracts was incubated in a 96-well plate coated with oligonucleotides containing the NF-κβ consensus nucleotide sequence (5′-[…]-3′) (SEQ ID NO: 30). The activated NF-κβ bound to DNA was detected by anti-p65 antibody followed by a peroxidase coupled secondary antibody and substrate using the TransAM kit protocol (Active Motif). Nuclear extracts of Raji cells was used as the positive control.
Select PGA protects against Aβ1-42 induced toxicity, prevents p65 activation and cytokine response in human fetal brain (HFB) cells. […] Viability in terms of relative luminescent Units (RLU) was quantified using a Glowmax luminometer (Promega, Wis.). Data are presented as ARLU=RLU of Aβ1-42 exposed cells-RLU of unexposed cells. […] The mean RLU of vehicle treated HFB varied between 7352.75+/−1265.2 and 16157.5+/−4950. […] The culture supernatants were assessed for cytokines by ELISA (R&D Systems, Minn.). […] Primary HFB cultured similarly and harvested at the end of 4 hours was assessed for nuclear p65 using TransAM kit for NF-κB p65 (Active Motif, Calif.).

[2] = system: Phospho-NF-κB p65 (Ser536); test: LPS induced neuroinflammation: Phospho-NF-κB p65 ELISA of brain homogenates; format: in vivo, mouse; conditions: 25 mg/kg i.v. alternate days, day 7
Protocol: Animals and lipopolysaccharide induced neuroinflammation: Male C57/6J mice weighing 32 to 37 grams were housed five per cage at a temperature of 22±2° C. with 12 hour light/12 hour dark cycles with free access to laboratory food and water. Lipopolysaccharides (LPS) from Escherichia coli 026:B6, =10,000 EU/mg, purified by phenol extraction was purchased from Sigma (Sigma Aldrich, Mo., USA). The mice were randomly divided into seven groups: LPS, LPS+GA-1 or GA-2 or CP-1 or CP-2 or CP-3 or TAT. The LPS was administered intraperitoneally at […] in 100 μl of sterile saline followed by corn oil in the morning daily for six days. The GA or CP was administered intravenously at 25 mg/kg in 100 μl of sterile saline on alternate days. Additional control group included mice receiving saline alone. […]
NF-κB assay: Brain homogenates processed as above were assessed by the Cell Signaling Technology PathScan® Phospho-NF-κB p65 (Ser^536) Sandwich ELISA kit following manufacturer's protocol (Cell Signaling Technology, Boston, Mass.). […] After extensive washing, the captured phospho-NF-κB p65 protein was detected by incubating with horse radish peroxidase (HRP) conjugated NF-κB p65 rabbit mAb followed by washing and color development using the TMB substrate. Absorbance at 450 nm was measured using a microplate reader (Model 680; Bio-Rad Laboratories, Hercules, Calif., USA). […]

U373 cells = test: Annexin-V and propidium iodide apoptosis by flow cytometry; format: cell-based, human; conditions: score 1/0
Protocol: Detection apoptosis by flow cytometry: To further assess cell cytotoxicity, the apoptotic effects of individual GA or control peptide was evaluated by the Annexin-V and propidium iodide (PI) dual staining method (Annexin-V-Fluos staining kit, Roche Diagnostics, Mannheim, Germany). As opposed to apoptotic cells, necrotic cells with ruptured cell membrane take up PI, the DNA binding dye. Thus, cells which take up both fluorochromes are a mixture of apoptotic and necrotic cells, whereas cells that exclude PI but bind Annexin V are (early) apoptotic cells. U373 cells cultured with varying concentrations of individual GA or control peptide (0.5 μM to 50 μM) for 24 hours were centrifuged and suspended in 100 μl of Annexin V/PI labelling solution (20 μl each of Annexin-V-Fluos labelling reagent and PI in 1 ml of binding buffer) for 15 min at room temperature. After washing the cells were resuspended in PBS:1% paraformaldehyde and analyzed using a FACScan flow cytometer (BD Biosciences, San Jose, Calif.).

[3] = dissociation constant, KD, method of Friguet et al.

Row | Substance | affinity for binding r-p65 relative to r-GILZ [1] | relative concentration of IL-6 in culture medium (Aβ1-42 exposed HFB cells) | relative concentration of IL-10 in culture medium (Aβ1-42 exposed HFB cells) | absorbance suggestive of activated p65 in brain protein extract [2] | Kd ([1]; KD (uM), score 1/0) | Kd [1, 3] | % apoptosis at LD50 (U373 cells)
1 | Ac-EPAPESPQV-NH2 [GA-2] | greater affinity for binding r-p65 than the full length r-GILZ | significantly lower | significantly lower | 0.12+/−0.07 | – | – | –
2 | Ac-EPAPLAPYG-NH2 [PGA-2] | – | – | – | – | < 3 µM | 2.29 µM | 1 (<25)
3 | Ac-EPAPLAPYG-NH2 [GA-1] | greater affinity for binding r-p65 than the full length r-GILZ | significantly lower | significantly lower | 0.098+/−0.03 | – | – | –
4 | Ac-EPAPESPQV-NH2 [PGA-4] | – | – | – | – | > 3 µM | 3.28 µM | 1 (<25)
